According to paper PMC8750630, “Novel Molecular Targets for Hepatocellular Carcinoma” (Cancers, 2021):

Test system: CD8+ T cells
Experiment: pMHC multimer staining of PBMCs for epitope-specific CD8+ T cells
Type: cell-based, human
Conditions: HLA-A*02:01 multimers, PBMCs from 4 HCC patients and 3 healthy donors, average
Description: pMHC complexes were generated by combining purified disulfide-stabilized HLA A*0201 monomer (100 μg/mL) with 100 μM peptide for 30 min in PBS at room temperature. Then, pMHC complexes were centrifuged for 5 min at 3300× g to sediment any aggregated MHC molecules. For each 100 μL pMHC, 9.02 μL (0.2 mg/mL stock, SA-PE (BioLegend, 405204), SA-APC (BioLegend, 405207), SA-PE/Cy7 (BioLegend, 405206), SA-PE-CF594 (BD, 562284)), or 18.04 μL (0.1 mg/mL stock, SA-BV421 (BioLegend, 405226), SA-BV650 (BioLegend, 405231) streptavidin conjugate was added and incubated for 30 min on ice. D-biotin (Sigma-Aldrich, St.Louis, MO, USA) was added at a final concentration of 25 μM to block any free binding sites and multimers were stored at −20 °C with 5% glycerol and 0.5% BSA. To stain for T-cell reactivity, PBMCs from 4 HCC patients and 3 healthy donors (2–5 × 10^6) were incubated with a pool of pMHC multimers (3 μL/multimer) and dasatinib (50 nM final, LC laboratories, D-3307) for 15 min at 37 °C. Cells were then stained with antibodies CD3-FITC (1:40, BD, 345763) and CD8-BV480 (1:100, BD, 566121) and LIVE/DEAD Fixable Near-IR (1:1000, Invitrogen, Waltham, MA, USA L10119) for 30 min on ice and washed twice in FACS buffer (PBS + 2% FCS). Gating for CD3^+/CD8^+ T cells was performed on live cells, and binding to pMHCs was assessed by measuring specific fluorescence associated with each individual pMHC. Samples were acquired on a flow cytometer (LSRFortessa, BD, Franklin Lakes, NJ, USA).

Sequence | percentage of CD8+ T cells reacting with the peptide
MLAGNEFQV | 0.32%
LLGPQLVLL | 0.55%
ALLALTSAV | 0.88%
MLAGNAFTA | 0.46%
